From PubChem BioAssay AID248 (DTP/NCI, 2004)
Where “and” joins values, the source holds several entries; their conditions need not be identical. Identical values can stand only once. Inconclusive results and toxic doses are left out. No stated cut-off is given here; in the data, active means T/C of 150% or more; inactive means T/C below 125%.

Test system: L1210 leukemia ip in BDF1 mice, survival T/C
Assay: NCI In Vivo Anticancer Drug Screen. Data for tumor model L1210 Leukemia (intraperitoneal) in B6D2F1 (BDF1) mice
Details: endpoint: mean survival time, higher = longer survival
Outline: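 Tumor cells were implanted, animals were treated, and survival was followed. The result divides the treated measurement by the vehicle-control measurement.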

[1] = dose: 100.0 mg/kg/injection, schedule: Q04DX003 (ip), vehicle: saline
[2] = dose: 25.0 mg/kg/injection, schedule: Q04DX003 (ip), vehicle: saline
[3] = dose: 50.0 mg/kg/injection, schedule: Q04DX003 (ip), vehicle: saline
[4] = dose: 25.0 mg/kg/injection, schedule: Q01DX009 (ip), vehicle: saline
[5] = dose: 50.0 mg/kg/injection, schedule: Q01DX009 (ip), vehicle: saline
[6] = dose: 100.0 mg/kg/injection, schedule: Q04DX003 (ip), vehicle: Klucel (hydroxypropylcellulose) (HPC)
[7] = dose: 200.0 mg/kg/injection, schedule: Q04DX003 (ip), vehicle: Klucel (hydroxypropylcellulose) (HPC)
[8] = dose: 50.0 mg/kg/injection, schedule: Q04DX003 (ip), vehicle: Klucel (hydroxypropylcellulose) (HPC)
[9] = dose: 100.0 mg/kg/injection, schedule: Q01DX009 (ip), vehicle: Klucel (hydroxypropylcellulose) (HPC)
[10] = dose: 25.0 mg/kg/injection, schedule: Q01DX009 (ip), vehicle: Klucel (hydroxypropylcellulose) (HPC)
[11] = dose: 25.0 mg/kg/injection, schedule: Q04DX003 (ip), vehicle: Klucel (hydroxypropylcellulose) (HPC)
[12] = dose: 50.0 mg/kg/injection, schedule: Q01DX009 (ip), vehicle: Klucel (hydroxypropylcellulose) (HPC)

Measured: T/C

NNC(=S)N/N=C/c1ccc([N+](=O)[O-])s1
inactive: [1] 87 % of control | dose: 200.0 mg/kg/injection, schedule: Q04DX003 (ip), vehicle: saline 89 % of control | dose: 400.0 mg/kg/injection, schedule: Q04DX003 (ip), vehicle: saline 95 % of control

Cc1cc(=O)[nH]c(NCCCCCC(=O)O)n1
inactive: [2] 104 % of control | [3] 104 % of control | [1] 101 % of control

COc1cc2ccnc(C(OC(=O)c3ccccc3)c3ccc(OCc4ccccc4)cc3)c2cc1OC (stereo not given)
inactive: dose: 100.0 mg/kg/injection, schedule: Q04DX003 (ip), vehicle: saline with Tween-80 95 % of control | dose: 200.0 mg/kg/injection, schedule: Q04DX003 (ip), vehicle: saline with Tween-80 88 % of control | dose: 400.0 mg/kg/injection, schedule: Q04DX003 (ip), vehicle: saline with Tween-80 95 % of control

CC(N)Cc1ccc2c(c1)OCO2 (stereo not given)
inactive: dose: 6.0 mg/kg/injection, schedule: Q01DX009 (ip), vehicle: saline 104 % of control | dose: 6.25 mg/kg/injection, schedule: Q01DX009 (ip), vehicle: saline 103 % of control | dose: 12.0 mg/kg/injection, schedule: Q01DX009 (ip), vehicle: saline 98 % of control | dose: 12.5 mg/kg/injection, schedule: Q01DX009 (ip), vehicle: saline 93 % of control | [4] 106 % of control and 98 % of control and 102 % of control | [2] 103 % of control and 96 % of control | [5] 108 % of control | [3] 103 % of control and 97 % of control | [6] 93 % of control | [1] 110 % of control

CCN(CC)C(=O)Oc1ccc(C(C)=O)cc1
inactive: dose: 100.0 mg/kg/injection, schedule: Q04DX002 (ip), vehicle: saline with Tween-80 103 % of control | dose: 200.0 mg/kg/injection, schedule: Q04DX002 (ip), vehicle: saline with Tween-80 100 % of control | dose: 400.0 mg/kg/injection, schedule: Q04DX002 (ip), vehicle: saline with Tween-80 114 % of control

c1ccc2c(c1)CNCc1ccccc1-2
inactive: [4] 92 % of control | [5] 105 % of control | dose: 100.0 mg/kg/injection, schedule: Q01DX009 (ip), vehicle: saline 96 % of control | [1] 105 % of control

O=C1OC(O)C(Cl)=C1Cl (stereo not given)
inactive: dose: 6.25 mg/kg/injection, schedule: Q04DX002 (ip), vehicle: saline with Tween-80 107 % of control | dose: 12.5 mg/kg/injection, schedule: Q04DX002 (ip), vehicle: saline with Tween-80 103 % of control | dose: 25.0 mg/kg/injection, schedule: Q04DX002 (ip), vehicle: saline with Tween-80 114 % of control

COc1cc(N(CCCl)CCCl)ccc1C=Nc1cccc(Cl)c1
inactive: dose: 50.0 mg/kg/injection, schedule: Q01DX001 (ip), vehicle: carboxymethylcellulose (CMC) 114 % of control | dose: 100.0 mg/kg/injection, schedule: Q01DX001 (ip), vehicle: carboxymethylcellulose (CMC) 111 % of control | dose: 200.0 mg/kg/injection, schedule: Q01DX001 (ip), vehicle: carboxymethylcellulose (CMC) 100 % of control | dose: 400.0 mg/kg/injection, schedule: Q01DX001 (ip), vehicle: carboxymethylcellulose (CMC) 100 % of control

Cc1ccc(-c2oc(-c3ccc(C)cc3)c3cc(C)c(C)cc23)cc1
inactive: dose: 100.0 mg/kg/injection, schedule: Q01DX001 (ip), vehicle: Klucel (hydroxypropylcellulose) (HPC) 87 % of control | dose: 200.0 mg/kg/injection, schedule: Q01DX001 (ip), vehicle: Klucel (hydroxypropylcellulose) (HPC) 90 % of control | dose: 400.0 mg/kg/injection, schedule: Q01DX001 (ip), vehicle: Klucel (hydroxypropylcellulose) (HPC) 88 % of control

CC(=O)CC(=O)Nc1ccccc1Cl
inactive: [6] 89 % of control | [7] 92 % of control | dose: 400.0 mg/kg/injection, schedule: Q04DX003 (ip), vehicle: Klucel (hydroxypropylcellulose) (HPC) 96 % of control

CCn1c2ccccc2c2cc3ccnc(C)c3cc21
inactive: dose: 100.0 mg/kg/injection, schedule: Q04DX002 (ip), vehicle: Klucel (hydroxypropylcellulose) (HPC) 97 % of control | dose: 200.0 mg/kg/injection, schedule: Q04DX002 (ip), vehicle: Klucel (hydroxypropylcellulose) (HPC) 101 % of control | dose: 400.0 mg/kg/injection, schedule: Q04DX002 (ip), vehicle: Klucel (hydroxypropylcellulose) (HPC) 111 % of control

CCCn1c(N)cc(=O)[nH]c1=S
inactive: dose: 50.0 mg/kg/injection, schedule: Q01DX001 (ip), vehicle: saline 100 % of control | dose: 100.0 mg/kg/injection, schedule: Q01DX001 (ip), vehicle: saline 96 % of control | dose: 200.0 mg/kg/injection, schedule: Q01DX001 (ip), vehicle: saline 100 % of control | dose: 400.0 mg/kg/injection, schedule: Q01DX001 (ip), vehicle: saline 100 % of control

CCCCCCCCCCCCCCCC(=O)NCCO
inactive: dose: 50.0 mg/kg/injection, schedule: Q01DX009 (ip), vehicle: saline sonified 96 % of control | [8] 91 % of control | dose: 100.0 mg/kg/injection, schedule: Q01DX009 (ip), vehicle: saline sonified 91 % of control | [6] 106 % of control | dose: 200.0 mg/kg/injection, schedule: Q01DX009 (ip), vehicle: saline sonified 96 % of control | [7] 96 % of control and 89 % of control

N#Cc1cccn1O
inactive: dose: 37.5 mg/kg/injection, schedule: Q01DX009 (ip), vehicle: Klucel (hydroxypropylcellulose) (HPC) 104 % of control | dose: 75.0 mg/kg/injection, schedule: Q01DX009 (ip), vehicle: Klucel (hydroxypropylcellulose) (HPC) 100 % of control | dose: 150.0 mg/kg/injection, schedule: Q01DX009 (ip), vehicle: Klucel (hydroxypropylcellulose) (HPC) 108 % of control

C[N+](C)(CCCN1C(=O)c2cccc3c(Br)ccc(c23)C1=O)Cc1ccc(Cl)c(Cl)c1
inactive: dose: 100.0 mg/kg/injection, schedule: Q01DX001 (ip), vehicle: other 98 % of control | dose: 200.0 mg/kg/injection, schedule: Q01DX001 (ip), vehicle: other 96 % of control | dose: 400.0 mg/kg/injection, schedule: Q01DX001 (ip), vehicle: other 93 % of control

c1ccc2c(c1)NCCN2
inactive: dose: 12.5 mg/kg/injection, schedule: Q01DX001 (ip), vehicle: saline 97 % of control | dose: 25.0 mg/kg/injection, schedule: Q01DX001 (ip), vehicle: saline 94 % of control

Clc1cc2c(cc1Cl)OB(c1ccccc1)O2
inactive: dose: 100.0 mg/kg/injection, schedule: Q04DX003 (ip), vehicle: alcohol 113 % of control | dose: 200.0 mg/kg/injection, schedule: Q04DX003 (ip), vehicle: alcohol 106 % of control

C1=CC=CN(c2ccccc2)C=C1
inactive: [9] 108 % of control | dose: 200.0 mg/kg/injection, schedule: Q01DX009 (ip), vehicle: Klucel (hydroxypropylcellulose) (HPC) 104 % of control

C/C=C/C(C#N)Nc1ccccc1C(N)=O (stereo not given)
inactive: dose: 12.5 mg/kg/injection, schedule: Q04DX003 (ip), vehicle: Klucel (hydroxypropylcellulose) (HPC) 91 % of control | [10] 104 % of control | [11] 96 % of control | [12] 103 % of control | [8] 102 % of control | [9] 95 % of control | [6] 94 % of control

CCCC[P+](CCCC)(CCCC)Cc1ccc(C(=O)Oc2ccc([N+](=O)[O-])cc2)cc1
inactive: [10] 98 % of control | [11] 91 % of control | [12] 89 % of control | [8] 93 % of control | [9] 102 % of control | [6] 96 % of control and 88 % of control

CC(C(=O)c1ccccc1)C(N[N+](C)(C)C)c1ccccc1 (stereo not given)
inactive: dose: 6.25 mg/kg/injection, schedule: Q04DX003 (ip), vehicle: saline 91 % of control | dose: 12.5 mg/kg/injection, schedule: Q04DX003 (ip), vehicle: saline 97 % of control | [2] 97 % of control
